This is an account of results in the supplement of paper PMC10307832.

Assay in all cases: relative viability (nuclei count vs DMSO), 5 days (fraction); higher = more cells survive
Compound in the assay “Ibrutinib + Luminespib”: C=CC(=O)N1CCC[C@@H](n2nc(-c3ccc(Oc4ccccc4)cc3)c3c(N)ncnc32)C1 [Ibrutinib] + CCNC(=O)c1noc(-c2cc(C(C)C)c(O)cc2O)c1-c1ccc(CN2CCOCC2)cc1 [Luminespib] (partner 0.01 µM)
The gist of the method:
(§1)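 Nuclei were stained with Hoechst during a one-step fixation (final 0.05% Triton X-100, 1% formaldehyde, 1 ug/ml Hoechst) carried out 5 days after dosing, then counted on 4× images. The cells, lung cancer lines in 1536-well plates, had been dosed by pin tool the day after seeding with one drug alone or a fixed anchor-drug dose plus five library-drug doses (not always all listed) in √10 steps. Relative viability is the nuclei count in treated wells divided by that in vehicle wells, and each value is the median of duplicate plates.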

Compound in the assay “Ibrutinib + Linsitinib”: C=CC(=O)N1CCC[C@@H](n2nc(-c3ccc(Oc4ccccc4)cc3)c3c(N)ncnc32)C1 [Ibrutinib] + C[C@]1(O)C[C@@H](c2nc(-c3ccc4ccc(-c5ccccc5)nc4c3)c3c(N)nccn32)C1 [Linsitinib] (partner 1 µM)
The method, boiled down:
as §1

Compound in the assay “BMX-IN-1 + Crizotinib”: C=CC(=O)Nc1cc(-n2c(=O)ccc3cnc4ccc(-c5ccc(NS(C)(=O)=O)cc5)cc4c32)ccc1C [BMX-IN-1] + C[C@@H](Oc1cc(-c2cnn(C3CCNCC3)c2)cnc1N)c1c(Cl)ccc(F)c1Cl [Crizotinib] (partner 1 µM)
The gist of the method: as §1

Compound in the assay “BMX-IN-1 + Vorinostat”: C=CC(=O)Nc1cc(-n2c(=O)ccc3cnc4ccc(-c5ccc(NS(C)(=O)=O)cc5)cc4c32)ccc1C [BMX-IN-1] + O=C(CCCCCCC(=O)Nc1ccccc1)NO [Vorinostat] (partner 1 µM)
The gist of the method:
as §1

Consider SK-MES-1, for which the relative viability in the assay with Ibrutinib + Luminespib (first compound 0.005 µM) came to 0.619; in the assay with Ibrutinib + Luminespib (first compound 0.01581 µM), 0.66; with Ibrutinib + Luminespib (first compound 0.05 µM) it was 0.77; in the assay with Ibrutinib + Luminespib (first compound 0.1581 µM), 0.842; with Ibrutinib + Luminespib (first compound 0.5 µM), 0.443; with Ibrutinib + Linsitinib (first compound 0.005 µM), 1.06. The relative viability in the assay with Ibrutinib + Linsitinib (first compound 0.01581 µM) is 0.937; with Ibrutinib + Linsitinib (first compound 0.05 µM), 1.11; with Ibrutinib + Linsitinib (first compound 0.1581 µM), 1.06; in the assay with Ibrutinib + Linsitinib (first compound 0.5 µM), 0.447; with BMX-IN-1 + Crizotinib (first compound 0.02 µM), 1.08; with BMX-IN-1 + Crizotinib (first compound 0.2 µM) it was 1.3. For the same cell line, the relative viability came to 1.08 with BMX-IN-1 + Crizotinib (first compound 0.6325 µM); 1.1 with BMX-IN-1 + Crizotinib (first compound 2 µM); 1.1 with BMX-IN-1 + Vorinostat (first compound 0.02 µM); 1.18 with BMX-IN-1 + Vorinostat (first compound 0.2 µM); 1.45 in the assay with BMX-IN-1 + Vorinostat (first compound 0.6325 µM); 0.717 in the assay with BMX-IN-1 + Vorinostat (first compound 2 µM).
